Assays:
[1] = test system: progesterone receptor (PR) binding to genomic regions in HCC1428 breast cancer cells; experiment: ChIP-PCR of PR binding regions in HCC1428 cells; type: cell-based, human
Method: Cells were cultured to 80% confluency in 15 cm tissue culture dishes, then treated for 45 minutes with 10 nM ORG2058 or vehicle. Chromatin was subsequently cross-linked by the addition of formaldehyde to the culture medium to a final concentration of 1% and incubation for 10 minutes at 37° C. Media were immediately removed and the cells were washed with cold phosphate buffered saline and harvested by scraping. Cells were collected by centrifugation and pellets were lysed 10 minutes at 4° C. in SDS buffer (1% SDS; 10 mM EDTA; 50 mM Tris-HCl, pH 8). The lysates were sonicated at 4° C. with a Branson 450 sonicator, using seven one minute bursts at 40% amplitude and 60% duty, each separated by a rest of at least one minute. Lysates were centrifuged at 13,000×g at 4° C. for 15 minutes to remove debris. […]
Directed ChIP was performed using the same protocol as described for ChIP-seq. Target templates were quantitated using Platinum Sybr Green reagents (Invitrogen) in a RotorGene 6000 real-time PCR machine. Directed ChIP was carried out as described above and purified gDNA fragments were diluted 2 to 5-fold prior to quantitation by real-time qPCR. […]

[2] = test system: progesterone receptor (PR) binding to genomic regions in T-47D breast cancer cells; experiment: ChIP-PCR of PR binding regions in T-47D cells; type: cell-based, human
Method: Cells were cultured to 80% confluency in 15 cm tissue culture dishes, then treated for 45 minutes with 10 nM ORG2058 or vehicle. Chromatin was subsequently cross-linked by the addition of formaldehyde to the culture medium to a final concentration of 1% and incubation for 10 minutes at 37° C. Media were immediately removed and the cells were washed with cold phosphate buffered saline and harvested by scraping. Cells were collected by centrifugation and pellets were lysed 10 minutes at 4° C. in SDS buffer (1% SDS; 10 mM EDTA; 50 mM Tris-HCl, pH 8). The lysates were sonicated at 4° C. with a Branson 450 sonicator, using seven one minute bursts at 40% amplitude and 60% duty, each separated by a rest of at least one minute. Lysates were centrifuged at 13,000×g at 4° C. for 15 minutes to remove debris. […] Supernatants were diluted 1:10 with IP buffer (0.5% NP-40; 50 mM Tris, pH 8; 120 mM NaCl; 0.5 mM PMSF; Complete protease inhibitor cocktail, Roche, Ryde, Australia) and pre-cleared by incubation with Dynabeads M-280 sheep anti-mouse IgG magnetic beads (Invitrogen, Mulgrave, Australia), with gentle rotation at 4° C. for at least 2 h to reduce non-specific binding to the secondary antibody beads. Genomic DNA fragments that were bound to PR were isolated by rotation overnight at 4° C. with in-house hPRa6 and hPRa7 mouse monoclonal anti-PR antibodies and fresh sheep anti-mouse IgG magnetic beads (40 ul per 1.4 ml diluted lysate). Beads were washed sequentially with IP buffer, high salt wash buffer (0.5% NP-40, 50 mM Tris, pH 8, 500 mM NaCl, 0.5 mM PMSF), lithium wash buffer (250 mM LiCl, 0.5% NP-40, 1% sodium deoxycholate, 1 mM EDTA, pH 8, 10 mM Tris-HCl, pH 8) and TE (10 mM Tris, pH 8, 1 mM EDTA). Isolated DNA fragments were eluted twice for 15 minutes at room temperature using elution buffer (1% SDS, 0.1M NaHCO3). Cross-links were reversed by addition of 0.25M NaCl and heating to 65° C. for at least 6 h. DNA fragments were purified using Qiagen PCR purification columns (Qiagen, Doncaster, Australia). DNA fragments isolated by PR chromatin immunoprecipitation from ORG2058 treated cells were sequenced on an Illumina GA-IIx sequencer at the Ramaciotti Centre for Gene Function Analysis (University of New South Wales, Australia) and GeneWorks (Hindmarsh, Australia). Input DNA isolated from the pre-cleared ORG2058 treated samples were sequenced as a baseline control. An aliquot of DNA was isolated from the ORG2058-treated, pre-cleared sample, to serve as an input DNA control sample in next-generation sequencing.
Directed ChIP was performed using the same protocol as described for ChIP-seq. Target templates were quantitated using Platinum Sybr Green reagents (Invitrogen) in a RotorGene 6000 real-time PCR machine. Directed ChIP was carried out as described above and purified gDNA fragments were diluted 2 to 5-fold prior to quantitation by real-time qPCR.
We conducted ChIP-PCR in T-47D cells and a second breast cancer cell line HCC1428, with ORG2058, onapristone, their combination or vehicle. The concentrations used were 1 nM ORG2058 and 100 nM onapristone.

[3] = test system: progestin-regulated genes in T-47D cells; experiment: Expression profiling in T-47D cells; type: cell-based, human
Method: (§1) Total RNA was isolated using RNAqueous purification columns (Invitrogen). Total RNA (500 ng) was amplified and biotin labelled using Illumina TotalPrep reagents (Invitrogen). The amplified samples (750 ng) were hybridized to human whole genome HT-12 gene expression bead arrays using the recommended Illumina reagents and following the manufacturer's protocol. Raw data were analysed using Genome Studio software (Illumina). After background subtraction data and cubic spline normalization, differential expression p values were determined using the Illumina custom model of Genome Studio. Data were further analysed using Microsoft Excel and SPSS statistical software. Hierarchical clustering and self organizing map clustering were performed using GenePattern.
(§2) Onapristone ablated progestin regulation of all but 5 genes in T-47D and 6 genes in HCC1428.

[4] = test system: progestin-regulated genes in HCC1428 cells; experiment: Expression profiling in HCC1428 cells; type: cell-based, human; settings: onapristone with 1 nM ORG2058
Method: as §1, §2

[5] = target: T1, PR (Homo sapiens, UniProt P06401); settings: relative to the synthetic analogue ORG2058; cited from earlier work
T1 sequence (P06401 1-933): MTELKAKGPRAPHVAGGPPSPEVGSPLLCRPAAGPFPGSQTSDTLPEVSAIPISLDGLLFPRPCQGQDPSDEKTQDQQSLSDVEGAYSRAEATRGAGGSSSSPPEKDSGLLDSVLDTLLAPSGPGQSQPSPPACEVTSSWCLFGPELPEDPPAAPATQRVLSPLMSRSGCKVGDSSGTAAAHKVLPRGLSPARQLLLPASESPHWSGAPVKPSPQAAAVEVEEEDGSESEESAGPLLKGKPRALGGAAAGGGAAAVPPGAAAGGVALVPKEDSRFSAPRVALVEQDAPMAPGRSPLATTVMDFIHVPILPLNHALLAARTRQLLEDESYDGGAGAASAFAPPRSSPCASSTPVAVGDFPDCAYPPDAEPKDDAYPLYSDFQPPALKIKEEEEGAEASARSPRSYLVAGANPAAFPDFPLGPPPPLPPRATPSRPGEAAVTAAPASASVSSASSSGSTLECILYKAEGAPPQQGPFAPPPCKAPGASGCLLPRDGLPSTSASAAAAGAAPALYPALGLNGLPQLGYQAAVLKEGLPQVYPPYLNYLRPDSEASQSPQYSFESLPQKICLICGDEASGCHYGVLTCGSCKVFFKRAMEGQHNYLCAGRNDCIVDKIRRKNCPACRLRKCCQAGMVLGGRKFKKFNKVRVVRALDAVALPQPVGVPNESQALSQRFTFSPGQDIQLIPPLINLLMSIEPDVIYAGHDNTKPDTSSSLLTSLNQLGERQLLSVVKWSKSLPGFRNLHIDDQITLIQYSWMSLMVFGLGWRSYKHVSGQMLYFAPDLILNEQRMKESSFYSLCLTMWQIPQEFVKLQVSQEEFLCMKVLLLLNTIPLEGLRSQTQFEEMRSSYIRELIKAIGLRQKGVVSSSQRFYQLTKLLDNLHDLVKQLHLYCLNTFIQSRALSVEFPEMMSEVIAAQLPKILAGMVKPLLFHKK

[6] = 1 nM ORG2058, in one or both cell lines (T-47D, HCC1428)

SMILES: CC[C@@H]1C[C@H]2[C@@H]3CCC4=CC(=O)CC[C@@H]4[C@H]3CC[C@]2(C)[C@H]1C(=O)CO [ORG2058, (8R,9S,10R,13S,14S,16R,17S)-16-ethyl-17-(2-hydroxyacetyl)-13-methyl-2,6,7,8,9,10,11,12,14,15,16,17-dodecahydro-1H-cyclopenta[a]phenanthren-3-one]
- PR binding regions with binding by ORG2058-liganded PR confirmed ([1]; 1 nM ORG2058, ten regions tested): 9 of the 10
- ORG effects at the concentration used (preliminary experiments) ([2]; 1 nM ORG2058, cell line of preliminary experiments not stated): maximal
- PR binding regions with binding by ORG2058-liganded PR confirmed ([2]; T-47D, 1 nM ORG2058, ten regions tested): 9 of the 10
- Differentially expressed probes [3, 6]: 309 probes
- Genes regulated [3, 6]: 267 genes

SMILES: CN(C)c1ccc([C@H]2C[C@]3(C)[C@@H](CC[C@]3(O)CCCO)[C@@H]3CCC4=CC(=O)CCC4=C32)cc1 [onapristone, (8S,11R,13R,14S,17S)-11-[4-(dimethylamino)phenyl]-17-hydroxy-17-(3-hydroxypropyl)-13-methyl-1,2,6,7,8,11,12,14,15,16-decahydrocyclopenta[a]phenanthren-3-one]
- Genes whose progestin regulation was not ablated by onapristone [4]: 6 genes
- PR binding regions with attenuation of ORG2058-liganded PR binding by onapristone confirmed ([1]; 100 nM onapristone + 1 nM ORG2058, ten regions tested): 9 of the 10 and attenuated
- PR binding in the presence of onapristone alone ([2]; 100 nM onapristone alone, mainly in T-47D cells): PR binding to some targets
- Effect of onapristone on ORG effects (preliminary experiments) ([2]; 100 nM onapristone with 1 nM ORG2058, cell line of preliminary experiments not stated): ablated
- PR binding regions with attenuation of ORG2058-liganded PR binding by onapristone confirmed ([2]; T-47D, 100 nM onapristone + 1 nM ORG2058, ten regions tested): 9 of the 10 and attenuated
- Genes whose progestin regulation was not ablated by onapristone ([3]; T-47D, onapristone with 1 nM ORG2058): 5 genes

SMILES: CC(=O)[C@H]1CC[C@H]2[C@@H]3CCC4=CC(=O)CC[C@]4(C)[C@H]3CC[C@]12C [progesterone]
- Dissociation from PR compared with ORG2058 [5]: more rapidly
